Laboratory results as given in US10081631B2, “2-(1H-indazol-3-yl)-1H-imidazo[4,5-C]pyridine and therapeutic uses thereof” (Samumed, LLC, priority 2014, dated 2018).

Columns and labels:
[1] = system: Wnt activity (Sp5-Luc reporter, SW480 colon carcinoma cells); assay: Screening assay for Wnt activity: Sp5-Luc reporter gene assay in SW480 cells; format: cell-based; settings: Homo sapiens, 42 h incubation, luminescence
Method in brief: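 IC50 values come from variable-slope four-parameter fits of luciferase signal normalized to DMSO wells. Stable Sp5-Luc reporter SW480 colon carcinoma cells were exposed to compounds in a 3-fold dilution series (source plates from 10 mM stock) for forty-two hours at 37 °C.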

[2] = system: primary human fibroblasts derived from IPF patients (LL29 cells); assay: Inhibition of fibrosis: TGF-β1-treated primary human fibroblasts from IPF patients (LL29), αSMA staining; format: cell-based; settings: Fibroblast, 96 h, TGF-β1 20 ng/mL, 4 days, % αSMA-positive cells
Description: The above synthesized compounds were screened using primary human fibroblasts (derived from IPF patients) treated with TGF-β1 to determine their ability to inhibit the fibrotic process.
Primary human fibroblasts derived from IPF patients (LL29 cells) [^1Xiaoqiu Liu, et. al., “Fibrotic Lung Fibroblasts Show Blunted Inhibition by cAMP Due to Deficient cAMP Response Element-Binding Protein Phosphorylation”, Journal of Pharmacology and Experimental Therapeutics (2005), 315(2), 678-687; ^2Watts, K. L., et. al., “RhoA signaling modulates cyclin D1 expression in human lung fibroblasts; implications for idiopathic pulmonary fibrosis”, Respiratory Research (2006), 7(1), 88] were obtained from American Type Culture Collection (ATCC) and expanded in F12 medium supplemented with 15% Fetal Bovine Serum and Penicillin/Streptomycin.
Each compound was dissolved in DMSO as a 10 mM stock and used to prepare compound source plates. Serial dilution (1:2, 11-point dose-response curves from 10 μM to 1.87 nM) and compound transfer was performed using the ECHO 550 (Labcyte, Sunnyvale, Calif.) into 384-well clear bottom assay plates (Greiner Bio-One) with appropriate DMSO backfill for a final DMSO concentration of 0.1%. LL29 cells were plated at 1,500 cells/well in 80 μl/well F12 medium supplemented with 1% Fetal Bovine Serum. One hour after addition of the cells, TGF-β1 (Peprotech; 20 ng/mL) was added to the plates to induce fibrosis (ref 1 and 2 above). Wells treated with TGF-β1 and containing DMSO were used as controls. Cells were incubated at 37° C. and 5% CO2 for 4 days. Following incubation for 4 days, SYTOX green nucleic acid stain (Life Technologies [Thermo Fisher Scientific]) was added to the wells at a final concentration of 1 uM and incubated at room temperature for 30 min. Cells were then fixed using 4% formaldehyde (Electron Microscopy Sciences), washed 3 times with PBS followed by blocking and permeabilization using 3% Bovine Serum Albumin (BSA; Sigma) and 0.3% Triton X-100 (Sigma) in PBS. Cells were then stained with antibody specific to α-smooth muscle actin (αSMA; Abcam) (ref 1 and 2 above) in 3% Bovine Serum Albumin (BSA; Sigma) and 0.3% Triton X-100 (Sigma) in PBS, and incubated overnight at 4° C. Cells were then washed 3 times with PBS, followed by incubation with Alexa Flor-647 conjugated secondary antibody (Life Technologies [Thermo Fisher Scientific]) and DAPI at room temperature for 1 hour. Cells were then washed 3 times with PBS and plates were sealed for imaging. αSMA staining was imaged by excitation at 630 nm and emission at 665 nm and quantified using the Compartmental Analysis program on the CellInsight CX5 (Thermo Scientific). Dead or apoptotic cells were excluded from analysis based on positive SYTOX green staining. % of total cells positive for αSMA were counted in each well and normalized to the average of 11 wells treated with TGF-β1 on the same plate using Dotmatics' Studies Software. The normalized averages (fold change over untreated) of 3 replicate wells for each compound concentration were used to create dose-responses curves and EC50 values were calculated using non-linear regression curve fit in the Dotmatics' Studies Software. The EC50 values are reported.

`CCCC(=O)Nc1cncc(-c2ccc3[nH]nc(-c4nc5c(-c6ccccc6F)nccc5[nH]4)c3c2)c1` [Compound 69, N-(5-(3-(4-(2-Fluorophenyl)-1H-imidazo[4,5-c]pyridin-2-yl)-1H-indazol-5-yl)pyridin-3-yl)butyramide] showed an IC50 [1] of 5 nM and an EC50 [2] of 74 nM.

Compound `Cc1ccncc1-c1ccc2[nH]nc(-c3nc4c(-c5ccsc5)nccc4[nH]3)c2c1` [Compound 239, 2-(5-(4-Methylpyridin-3-yl)-1H-indazol-3-yl)-4-(thiophen-3-yl)-1H-imidazo[4,5-c]pyridine] has an IC50 [1] of 3 nM and an EC50 [2] of 60 nM.

`CC(C)CC(=O)Nc1cncc(-c2ccc3[nH]nc(-c4nc5c(-c6cccc(F)c6)nccc5[nH]4)c3c2)c1` [Compound 2, N-(5-(3-(4-(3-Fluorophenyl)-1H-imidazo[4,5-c]pyridin-2-yl)-1H-indazol-5-yl)pyridin-3-yl)-3-methylbutanamide] showed an IC50 [1] of 5 nM and an EC50 [2] of 9 nM.

`CN(C)Cc1cncc(-c2ccc3[nH]nc(-c4nc5c(-c6cccc(F)c6)nccc5[nH]4)c3c2)c1` [Compound 13, 1-(5-(3-(4-(3-Fluorophenyl)-1H-imidazo[4,5-c]pyridin-2-yl)-1H-indazol-5-yl)pyridin-3-yl)-N,N-dimethylmethanamine] was tested, and the IC50 [1] was 1 nM and the EC50 [2] was 9 nM.

`Cc1ccncc1-c1ccc2[nH]nc(-c3nc4c(-c5cc(F)cc(CNS(C)(=O)=O)c5)nccc4[nH]3)c2c1` [Compound 395, N-(3-Fluoro-5-(2-(5-(4-methylpyridin-3-yl)-1H-indazol-3-yl)-1H-imidazo [4,5-c]pyridin-4-yl)benzyl)methanesulfonamide] was tested, and the IC50 [1] was 85 nM and the EC50 [2] was 26 nM.

Work on `CC(C)(C)C(=O)Nc1cncc(-c2ccc3[nH]nc(-c4nc5c(-c6cccnc6)nccc5[nH]4)c3c2)c1` [Compound 86, N-(5-(3-(4-(Pyridin-3-yl)-1H-imidazo[4,5-c]pyridin-2-yl)-1H-indazol-5-yl)pyridin-3-yl)pivalamide] yielded an IC50 [1] of 17.9 nM and an EC50 [2] of 993 nM.

In the case of `Cc1cn(-c2nccc3[nH]c(-c4n[nH]c5ccc(-c6cncc(NC(=O)C(C)(C)C)c6)cc45)nc23)cn1` [Compound 190, N-(5-(3-(4-(4-Methyl-1H-imidazol-1-yl)-1H-imidazo[4,5-c]pyridin-2-yl)-1H-indazol-5-yl)pyridin-3-yl)pivalamide], the IC50 [1] is reported as 5 nM and the EC50 [2] is reported as 50 nM.

With `CN(C)CCOc1cncc(-c2ccc3[nH]nc(-c4nc5c(-c6cccc(F)c6)nccc5[nH]4)c3c2)c1` [Compound 1779, 2-((5-(3-(4-(3-Fluorophenyl)-1H-imidazo[4,5-c]pyridin-2-yl)-1H-indazol-5-yl)pyridin-3-yl)oxy)-N,N-dimethylethan-1-amine] the IC50 [1] was 192 nM and the EC50 [2] was 41 nM.

Compound `O=C(Nc1cncc(-c2ccc3[nH]nc(-c4nc5c(-c6ccncc6)nccc5[nH]4)c3c2)c1)C1CCCCC1` [Compound 126, N-(5-(3-(4-(Pyridin-4-yl)-1H-imidazo[4,5-c]pyridin-2-yl)-1H-indazol-5-yl)pyridin-3-yl)cyclohexanecarboxamide] has an IC50 [1] of 1190 nM and an EC50 [2] of 9990 nM.

`CCC(=O)Nc1cncc(-c2ccc3[nH]nc(-c4nc5c(N6CCCCC6)nccc5[nH]4)c3c2)c1` [Compound 157, N-(5-(3-(4-(Piperidin-1-yl)-1H-imidazo[4,5-c]pyridin-2-yl)-1H-indazol-5-yl)pyridin-3-yl)propionamide] was tested, and the IC50 [1] was 183 nM and the EC50 [2] was 71 nM.

With `Fc1cccc(-c2nccc3[nH]c(-c4n[nH]c5ccc(-c6cncc(OC7CCCCC7)c6)cc45)nc23)c1` [Compound 1775, 2-(5-(5-(Cyclohexyloxy)pyridin-3-yl)-1H-indazol-3-yl)-4-(3-fluorophenyl)-1H-imidazo[4,5-c]pyridine] the IC50 [1] was 252 nM and the EC50 [2] was 9 nM.

With `c1cncc(-c2nccc3[nH]c(-c4n[nH]c5ccc(-c6cncc(CN7CCCCC7)c6)cc45)nc23)c1` [Compound 93, 2-(5-(5-(Piperidin-1-ylmethyl)pyridin-3-yl)-1H-indazol-3-yl)-4-(pyridin-3-yl)-1H-imidazo[4,5-c]pyridine] the IC50 [1] was 318 nM and the EC50 [2] was 388 nM.
